Assay: Red blood count and megakaryocyte function before and after therapy in HIV-positive patients
Assay type: in vivo, Mensch
Settings: patients pretreated with a chain terminator, before therapy
From the text: Folgende Laborparameter wurden vor und nach der Therapie an 23 HIV-positiven Patienten mit verschiedener klinischer Symptomatik bestimmt: • 1. Rotes Blutbild und Megakaryozytenfunktion • 2. Weißes Blutbild und Lymphozytensubpopulation • 3. Lymphozytenstimulation • 4. Proteine • a) Gesamteiweiß • b) Elektrophorese • c) Immunelektrophorese • d) zirkulierende Immunkomplexe (CIC) • 5. B12-Gehalt • a) Serum pg/ml • b) Erythrozyten pg/ml Zellen • c) mononukleäre Zellen pg/ml Zellen • 6. Folat-Gehalt • a) Serum ng/ml • b) Erythrozyten ng/ml Zellen • c) mononukleäre Zellen ng/ml Zellen • 7. HIV (Elisa) in Titerstufen • 8. HIV - Westernblot (P24-core, P55-gag, gP41-env, gP120-env, gP160-env) mit Bewertung der Banden von + bis ++++ • 9. β2-Mikroglobulin korreliert • a) mit der Aktivität der NK-Zellen (ADCC = antibody dependent cellmediated cytotoxicity) • b) mit der Aktivität der CD8- NK-Zellen • 10. Neopterin Zwischenprodukt der Reaktion GPT (Guanosintriphosphat) --> Tetrahydrobiopterin (Hydroxylierung von Phenylalanin, Tyrosin und Tryptophan) Die Bedeutung von Neopterin ist zur Zeit noch Gegenstand wissenschaftlicher Untersuchungen. • 11. Lysozym (Muramidase) Messung der Granulozytenaktivität • 12. Serologie sexuell übertragbarer Krankheiten (STD) […]

For Cc1cn([C@H]2C[C@H](N=[N+]=[N-])[C@@H](CO)O2)c(=O)[nH]c1=O [AZT, Azidothymidin], the “makrozytäre, hyperchrome Anämie (MCV, Hbe erhöht)” value was “noch ausgeprägter”.

Reference: patent EP0579806B1, “MEDICAMENT FOR THE TREATMENT AND/OR PROPHYLAXIS OF FOLATE METABOLISM DISORDERS” (Kragler, Peter, priority 1992, dated 1993)
